Drawing on the supplement of paper PMC10307832, this text covers relative viability for six cell lines.

Holding throughout (assay): relative viability (nuclei count vs DMSO), 5 days (fraction); higher = more cells survive
Compound in the test “Tosedostat + Crizotinib”: CC(C)C[C@@H](C(=O)N[C@H](C(=O)OC1CCCC1)c1ccccc1)[C@H](O)C(=O)NO [Tosedostat] + C[C@@H](Oc1cc(-c2cnn(C3CCNCC3)c2)cnc1N)c1c(Cl)ccc(F)c1Cl [Crizotinib] (partner 1 µM)
The gist of the method:
(§1)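 Relative viability equals treated-well nuclei counts divided by vehicle-well nuclei counts. Counts came from 4× images of lung cancer cell lines grown in 1536-well plates for 5 days after pin-tool dosing on the day after seeding. Dosing used one drug alone or a fixed anchor-drug dose plus five library-drug doses (not always all listed) in √10 steps, and values are medians of duplicate plates.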

Compound in test [1]: CC1=NN=C(O1)C2=NN=C(C=C2)N3CCC(CC3)OC4=C(C=CC(=C4)F)Cl + COc1cccc2cc(-c3nc([C@H]4CC[C@H](C(=O)O)CC4)n4ncnc(N)c34)[nH]c12 [OSI-027] (partner 0.5 µM)
An outline of the steps:
as §1

Compound in the test “Tosedostat + Pemetrexed”: CC(C)C[C@@H](C(=O)N[C@H](C(=O)OC1CCCC1)c1ccccc1)[C@H](O)C(=O)NO [Tosedostat] + Nc1nc2[nH]cc(CCc3ccc(C(=O)N[C@@H](CCC(=O)O)C(=O)O)cc3)c2c(=O)[nH]1 [Pemetrexed] (partner 0.2 µM)
The gist of the method:
as §1

Compound in the test “Tosedostat + Luminespib”: CC(C)C[C@@H](C(=O)N[C@H](C(=O)OC1CCCC1)c1ccccc1)[C@H](O)C(=O)NO [Tosedostat] + CCNC(=O)c1noc(-c2cc(C(C)C)c(O)cc2O)c1-c1ccc(CN2CCOCC2)cc1 [Luminespib] (partner 0.01 µM)
An outline of the steps: as §1

PC-14: the relative viability is 0.843 with Tosedostat + Crizotinib (first compound 0.02 µM); 0.805 with Tosedostat + Crizotinib (first compound 0.06325 µM); 0.893 in the test with Tosedostat + Crizotinib (first compound 0.2 µM); 0.842 in the test with Tosedostat + Crizotinib (first compound 0.6325 µM); 0.92 in the test with Tosedostat + Crizotinib (first compound 2 µM); 0.818 in test [1] (first compound 0.253 µM). The relative viability in test [1] (first compound 0.8 µM) was 0.572; in test [1] (first compound 2.53 µM) it was 0.721; in test [1] (first compound 8 µM), 0.643; with Tosedostat + Pemetrexed (first compound 0.02 µM), 0.125; with Tosedostat + Pemetrexed (first compound 0.06325 µM) it was 0.135; with Tosedostat + Pemetrexed (first compound 0.2 µM), 0.157. The relative viability stood at 0.124 in the test with Tosedostat + Pemetrexed (first compound 0.6325 µM); 0.09 in the test with Tosedostat + Pemetrexed (first compound 2 µM); 0.163 with Tosedostat + Luminespib (first compound 0.02 µM); 0.197 in the test with Tosedostat + Luminespib (first compound 0.06325 µM); 0.16 with Tosedostat + Luminespib (first compound 0.2 µM); 0.207 in the test with Tosedostat + Luminespib (first compound 0.6325 µM). In addition, the relative viability in the test with Tosedostat + Luminespib (first compound 2 µM) came to 0.127.

Turning to RERF-LC-KJ, the relative viability with Tosedostat + Crizotinib (first compound 0.02 µM) came out at 0.859; with Tosedostat + Crizotinib (first compound 0.06325 µM) it was 0.887; in the test with Tosedostat + Crizotinib (first compound 0.2 µM), 0.764; in the test with Tosedostat + Crizotinib (first compound 0.6325 µM), 0.686; with Tosedostat + Crizotinib (first compound 2 µM), 0.78; in test [1] (first compound 0.253 µM), 0.524. Further, the relative viability in test [1] (first compound 0.8 µM) was 0.531; in test [1] (first compound 2.53 µM), 0.622; in test [1] (first compound 8 µM), 0.479; with Tosedostat + Pemetrexed (first compound 0.02 µM), 0.49; with Tosedostat + Pemetrexed (first compound 0.06325 µM) it was 0.499; with Tosedostat + Pemetrexed (first compound 0.2 µM), 0.51. Also, the relative viability with Tosedostat + Pemetrexed (first compound 0.6325 µM) is 0.486; in the test with Tosedostat + Pemetrexed (first compound 2 µM), 0.466; with Tosedostat + Luminespib (first compound 0.02 µM) it was 1.35; with Tosedostat + Luminespib (first compound 0.06325 µM) it was 1.23; with Tosedostat + Luminespib (first compound 0.2 µM), 1.36; with Tosedostat + Luminespib (first compound 0.6325 µM) it was 1.08. Further, the relative viability in the test with Tosedostat + Luminespib (first compound 2 µM) turned out to be 1.2.

Regarding SK-LU-1, the relative viability was 0.898 with Tosedostat + Crizotinib (first compound 0.02 µM); 0.775 with Tosedostat + Crizotinib (first compound 0.06325 µM); 0.731 in the test with Tosedostat + Crizotinib (first compound 0.2 µM); 0.693 with Tosedostat + Crizotinib (first compound 0.6325 µM); 0.871 with Tosedostat + Crizotinib (first compound 2 µM); 0.3 in test [1] (first compound 0.253 µM). Moreover, the relative viability amounted to 0.247 in test [1] (first compound 2.53 µM); 0.199 in test [1] (first compound 8 µM); 1 with Tosedostat + Pemetrexed (first compound 0.02 µM); 0.9 with Tosedostat + Pemetrexed (first compound 0.06325 µM); 1.05 with Tosedostat + Pemetrexed (first compound 0.2 µM); 0.962 with Tosedostat + Pemetrexed (first compound 0.6325 µM). The relative viability with Tosedostat + Pemetrexed (first compound 2 µM) came out at 0.868; with Tosedostat + Luminespib (first compound 0.02 µM) it was 0.213; with Tosedostat + Luminespib (first compound 0.06325 µM), 0.211; with Tosedostat + Luminespib (first compound 0.2 µM), 0.217; with Tosedostat + Luminespib (first compound 0.6325 µM), 0.2; in the test with Tosedostat + Luminespib (first compound 2 µM) it was 0.188.

As for SK-MES-1, the relative viability with Tosedostat + Crizotinib (first compound 0.02 µM) worked out at 1.06; in the test with Tosedostat + Crizotinib (first compound 0.06325 µM), 0.988; with Tosedostat + Crizotinib (first compound 0.2 µM), 0.983; with Tosedostat + Crizotinib (first compound 0.6325 µM), 0.909; in the test with Tosedostat + Crizotinib (first compound 2 µM) it was 0.856; in test [1] (first compound 0.253 µM), 0.558. The relative viability in test [1] (first compound 0.8 µM) came out at 0.583; in test [1] (first compound 2.53 µM), 0.601; in test [1] (first compound 8 µM), 0.487; in the test with Tosedostat + Pemetrexed (first compound 0.02 µM), 1.01; in the test with Tosedostat + Pemetrexed (first compound 0.06325 µM), 1; in the test with Tosedostat + Pemetrexed (first compound 0.2 µM), 1.11. Also, the relative viability with Tosedostat + Pemetrexed (first compound 0.6325 µM) was determined as 1.14; with Tosedostat + Pemetrexed (first compound 2 µM) it was 0.993; with Tosedostat + Luminespib (first compound 0.02 µM), 0.813; with Tosedostat + Luminespib (first compound 0.06325 µM) it was 0.813; in the test with Tosedostat + Luminespib (first compound 0.2 µM) it was 0.898; with Tosedostat + Luminespib (first compound 0.6325 µM), 0.789. Also, the relative viability in the test with Tosedostat + Luminespib (first compound 2 µM) was determined as 0.74.

On to SW 1573, for which the relative viability with Tosedostat + Crizotinib (first compound 0.02 µM) was 0.711; with Tosedostat + Crizotinib (first compound 0.06325 µM), 0.868; in the test with Tosedostat + Crizotinib (first compound 0.2 µM), 0.637; with Tosedostat + Crizotinib (first compound 0.6325 µM), 0.648; with Tosedostat + Crizotinib (first compound 2 µM) it was 0.713; in test [1] (first compound 0.253 µM), 0.643. In addition, the relative viability in test [1] (first compound 0.8 µM) was 0.52; in test [1] (first compound 2.53 µM) it was 0.562; in test [1] (first compound 8 µM), 0.4; with Tosedostat + Pemetrexed (first compound 0.02 µM), 0.972; with Tosedostat + Pemetrexed (first compound 0.06325 µM), 0.856; with Tosedostat + Pemetrexed (first compound 0.2 µM), 0.899. Further, the relative viability in the test with Tosedostat + Pemetrexed (first compound 0.6325 µM) was 0.777; with Tosedostat + Pemetrexed (first compound 2 µM), 1; with Tosedostat + Luminespib (first compound 0.02 µM), 0.219; in the test with Tosedostat + Luminespib (first compound 0.06325 µM), 0.215; with Tosedostat + Luminespib (first compound 0.2 µM), 0.456; with Tosedostat + Luminespib (first compound 0.6325 µM) it was 0.411. Also, the relative viability in the test with Tosedostat + Luminespib (first compound 2 µM) stood at 0.277.

Consider UMC-11, for which the relative viability with Tosedostat + Crizotinib (first compound 0.02 µM) stood at 0.688; with Tosedostat + Crizotinib (first compound 0.06325 µM) it was 0.648; in the test with Tosedostat + Crizotinib (first compound 0.2 µM), 0.6; in the test with Tosedostat + Crizotinib (first compound 0.6325 µM) it was 0.559; with Tosedostat + Crizotinib (first compound 2 µM), 0.459; in test [1] (first compound 0.253 µM), 0.446. Further, the relative viability in test [1] (first compound 0.8 µM) turned out to be 0.482; in test [1] (first compound 2.53 µM), 0.529; in test [1] (first compound 8 µM) it was 0.565; with Tosedostat + Pemetrexed (first compound 0.02 µM) it was 0.86; with Tosedostat + Pemetrexed (first compound 0.06325 µM), 0.723; with Tosedostat + Pemetrexed (first compound 0.2 µM), 0.85. The relative viability with Tosedostat + Pemetrexed (first compound 0.6325 µM) is 0.84; with Tosedostat + Pemetrexed (first compound 2 µM), 0.94; in the test with Tosedostat + Luminespib (first compound 0.02 µM), 1.01; with Tosedostat + Luminespib (first compound 0.06325 µM), 0.999; with Tosedostat + Luminespib (first compound 0.2 µM) it was 1.03; with Tosedostat + Luminespib (first compound 0.6325 µM), 0.977. Besides, the relative viability in the test with Tosedostat + Luminespib (first compound 2 µM) was 1.12.
